Assay: xn = mol fraction of the nth substance listed
Settings: 101 kPa, Liquid; for viscosity: Concentric cylinders viscometry; for speed of sound: Single path-length method; for mass density: Vibrating tube method

CCCCCCCCCCCCCCCC [hexadecane] + CCCCO
Settings	mass density, 333.15 K [kg/m3]	mass density, 338.15 K [kg/m3]	mass density, 343.15 K [kg/m3]	speed of sound, 333.15 K [m/s]	speed of sound, 338.15 K [m/s]	speed of sound, 343.15 K [m/s]	viscosity, 333.15 K [mPa·s]	viscosity, 338.15 K [mPa·s]	viscosity, 343.15 K [mPa·s]
x2 = 0	745.74	742.31	738.88	1211.8	1194.4	1177.5	–	1.421	1.316
x2 = 0.1	745.58	742.04	738.5	1203.1	1185.5	1168.3	–	1.328	1.23
x2 = 0.2	746.2	742.57	738.94	1196.3	1178.7	1161.2	–	1.282	1.185
x2 = 0.3	747.19	743.51	739.8	1189.8	1172.1	1154.6	–	1.238	1.144
x2 = 0.4	748.53	744.78	741.01	1182.9	1165.2	1147.7	–	1.2	1.107
x2 = 0.5	750.34	746.53	742.68	1175.6	1157.9	1140.3	–	1.163	1.071
x2 = 0.6	752.78	748.9	744.98	1167.6	1149.9	1132.3	–	1.127	1.037
x2 = 0.7	756.08	752.13	748.13	1158.7	1141	1123.5	1.199	1.095	1.004
x2 = 0.8	760.69	756.66	752.59	1148.5	1131	1113.6	1.177	1.071	0.9782
x2 = 0.9	767.42	763.33	759.19	1136.6	1119.5	1102.4	1.143	1.036	0.9425
